Data from patent publication US8071581B2, “Triazolopyridazine protein kinase modulators” (SGX Pharmaceuticals, Inc., priority 2006, dated 2011).
pEC50, pIC50: −log10 of the molar value.

Legend:
GTL16 = GTL16 cell assay (EC50); format: cell-based; conditions: Homo sapiens, GTL 16; Table 1
Description: Compounds were tested in the following assays in duplicate. 96-well XTT assay: Cells were grown in growth media containing various concentrations of compounds (duplicates) on a 96-well flat bottom plate for 72 hours at 37° C. in 5% CO2. The starting cell number was 5000 cells per well and volume was 120 μl. At the end of the 72-hour incubation, 40 μl of XTT labeling mixture (50:1 solution of sodium 3′-[1-(phenylaminocarbonyl)-3,4-tetrazolium]-bis(4-methoxy-6-nitro) benzene sulfonic acid hydrate and Electron-coupling reagent: PMS (N-methyl dibenzopyrazine methyl sulfate) were added to each well of the plate. After an additional 2-6 hours […] with a spectrophotometer.

[1] = biological target: MET kinase (c-MET), kinase domain of human Met (Homo sapiens, UniProt P08581); experiment: MET luminescence-based enzyme assay (Kinase-Glo)
Chain of MET kinase (c-MET), kinase domain of human Met (P08581 1078-1345 limits assumed): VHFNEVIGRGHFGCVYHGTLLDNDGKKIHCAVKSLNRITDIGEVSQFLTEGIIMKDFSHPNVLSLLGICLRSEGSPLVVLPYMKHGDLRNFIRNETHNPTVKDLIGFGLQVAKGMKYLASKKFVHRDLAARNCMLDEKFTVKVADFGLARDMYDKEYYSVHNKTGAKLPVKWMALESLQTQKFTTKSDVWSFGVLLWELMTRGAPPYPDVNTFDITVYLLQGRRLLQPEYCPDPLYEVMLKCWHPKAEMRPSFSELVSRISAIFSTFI

Row | Structure (SMILES) | pEC50 (GTL16) | pIC50 [1]
1 | NC(=O)c1ccc(-c2ccc3nnc(Cc4ccc5ncccc5c4)n3n2)cc1 [compound 24] | > 7.00 | > 7.00
2 | NS(=O)(=O)c1cccc(-c2ccc3nnc(Cc4ccc5ncccc5c4)n3n2)c1 [compound 25] | 6.00 to 7.00 | > 7.00
3 | Cc1ccc2nnc(Cc3c(F)cc4ncc(Br)cc4c3F)n2n1 [compound 28] | 6.00 to 7.00 | 5.00 to 6.00
4 | CN(C)S(=O)(=O)c1ccc(-c2ccc3nnc(Cc4ccc5ncccc5c4)n3n2)cc1 [compound 29] | 5.00 to 6.00 | 6.00 to 7.00
5 | Fc1cccc(-c2ccc3nnc(Cc4ccc5ncccc5c4)n3n2)c1 [compound 31] | > 7.00 | > 7.00
6 | NCc1ccc(-c2ccc3nnc(Cc4ccc5ncccc5c4)n3n2)cc1 [compound 32] | > 7.00 | > 7.00
7 | O=C(NC1CCCC1)c1cccc(-c2ccc3nnc(Cc4ccc5ncccc5c4)n3n2)c1 [compound 33] | 6.00 to 7.00 | 6.00 to 7.00
8 | CN(C)C(=O)c1ccc(-c2ccc3nnc(Cc4ccc5ncccc5c4)n3n2)cc1 [compound 34] | 6.00 to 7.00 | 6.00 to 7.00
9 | Cc1cccc(-c2ccc3nnc(Cc4ccc5ncccc5c4)n3n2)c1 [compound 35] | 6.00 to 7.00 | > 7.00
10 | Cc1ccc(-c2ccc3nnc(Cc4ccc5ncccc5c4)n3n2)cc1 [compound 36] | > 7.00 | > 7.00
11 | CNS(=O)(=O)c1ccc(-c2ccc3nnc(Cc4ccc5ncccc5c4)n3n2)cc1 [compound 37] | > 7.00 | 6.00 to 7.00
12 | Nc1nc2ccc(Cc3nnc4ccc(-c5ccccc5)nn34)cc2s1 [compound 42] | 5.00 to 6.00 | 6.00 to 7.00
13 | c1ccc(-c2ccc3nnc(Cc4ccc5ncsc5c4)n3n2)cc1 [compound 43] | 6.00 to 7.00 | 6.00 to 7.00
14 | c1ccc(-c2ccc3nnc(Cc4ccc5nc[nH]c5c4)n3n2)cc1 [compound 45, 3-(3H-Benzoimidazol-5-ylmethyl)-6-phenyl-[1,2,4]triazolo[4,3-b]pyridazine] | 6.00 to 7.00 | 6.00 to 7.00
15 | C/C=C/c1ccc2nnc(Cc3ccc4ncccc4c3)n2n1 [compound 46] | 6.00 to 7.00 | 6.00 to 7.00
16 | CCNC(=O)c1cccc(-c2ccc3nnc(Cc4ccc5ncccc5c4)n3n2)c1 [compound 47] | 6.00 to 7.00 | > 7.00
17 | CNS(=O)(=O)c1cccc(-c2ccc3nnc(Cc4ccc5ncccc5c4)n3n2)c1 [compound 48] | > 7.00 | > 7.00
18 | CS(=O)(=O)c1cccc(-c2ccc3nnc(Cc4ccc5ncccc5c4)n3n2)c1 [compound 49] | > 7.00 | > 7.00
19 | CS(=O)(=O)Nc1cccc(-c2ccc3nnc(Cc4ccc5ncccc5c4)n3n2)c1 [compound 51] | 6.00 to 7.00 | > 7.00
20 | CC(=O)Nc1ccc(-c2ccc3nnc(Cc4ccc5ncccc5c4)n3n2)cc1 [compound 52] | 6.00 to 7.00 | > 7.00
21 | Fc1ccccc1-c1ccc2nnc(Cc3ccc4ncccc4c3)n2n1 [compound 53] | 6.00 to 7.00 | 6.00 to 7.00
22 | OCc1ccc(-c2ccc3nnc(Cc4ccc5ncccc5c4)n3n2)cc1 [compound 54] | 6.00 to 7.00 | > 7.00
23 | NCc1cccc(-c2ccc3nnc(Cc4ccc5ncccc5c4)n3n2)c1 [compound 55] | 6.00 to 7.00 | > 7.00
24 | CNC(=O)c1cc(F)cc(-c2ccc3nnc(Cc4ccc5ncccc5c4)n3n2)c1 [compound 56] | 6.00 to 7.00 | 6.00 to 7.00
25 | CC(=O)Nc1cccc(-c2ccc3nnc(Cc4ccc5ncccc5c4)n3n2)c1 [compound 57] | 5.00 to 6.00 | 6.00 to 7.00

Row | Structure (SMILES) | pEC50 (GTL16) | pIC50 [1]
26 | CNC(=O)c1cccc(-c2ccc3nnc(Cc4ccc5ncccc5c4)n3n2)c1 [compound 58] | 5.00 to 6.00 | 6.00 to 7.00
27 | N#CCc1cccc(-c2ccc3nnc(Cc4ccc5ncccc5c4)n3n2)c1 [compound 61] | 6.00 to 7.00 | > 7.00
28 | O=S(=O)(c1ccc(-c2ccc3nnc(Cc4ccc5ncccc5c4)n3n2)cc1)N1CCOCC1 [compound 62] | 6.00 to 7.00 | > 7.00
29 | Fc1ccc(-c2ccc3nnc(Cc4ccc5ncccc5c4)n3n2)cc1 [compound 63] | 6.00 to 7.00 | 6.00 to 7.00
30 | CN(C)S(=O)(=O)c1cccc(-c2ccc3nnc(Cc4ccc5ncccc5c4)n3n2)c1 [compound 64] | > 7.00 | > 7.00
31 | CNc1ccc(-c2ccc3nnc(Cc4ccc5ncccc5c4)n3n2)cc1 [compound 65] | > 7.00 | > 7.00
32 | CNC(=O)c1ccc(-c2ccc3nnc(Cc4ccc5ncccc5c4)n3n2)cc1 [compound 66] | 6.00 to 7.00 | > 7.00
33 | CN(C)c1cccc(-c2ccc3nnc(Cc4ccc5ncccc5c4)n3n2)c1 [compound 67] | 6.00 to 7.00 | 6.00 to 7.00
34 | Cn1cnc2ccc(Cc3nnc4ccc(-c5ccccc5)nn34)cc21 [compound 68, 3-(3-Methyl-3H-benzoimidazol-5-ylmethyl)-6-phenyl-[1,2,4]triazolo[4,3-b]pyridazine] | 6.00 to 7.00 | 6.00 to 7.00
35 | N#Cc1cc(-c2ccc3nnc(Cc4ccc5ncccc5c4)n3n2)ccc1F [compound 69] | 5.00 to 6.00 | 6.00 to 7.00
36 | Fc1cc(F)cc(-c2ccc3nnc(Cc4ccc5ncccc5c4)n3n2)c1 [compound 70] | 6.00 to 7.00 | > 7.00
37 | CN(C)C(=O)c1cc(F)cc(-c2ccc3nnc(Cc4ccc5ncccc5c4)n3n2)c1 [compound 71] | 6.00 to 7.00 | 6.00 to 7.00
38 | O=C(NCC(F)(F)F)c1ccc(-c2ccc3nnc(Cc4ccc5ncccc5c4)n3n2)cc1 [compound 72] | 6.00 to 7.00 | > 7.00
39 | O=C(NCCO)c1ccc(-c2ccc3nnc(Cc4ccc5ncccc5c4)n3n2)cc1F [compound 74] | 6.00 to 7.00 | > 7.00
40 | CCNC(=O)c1ccc(-c2ccc3nnc(Cc4ccc5ncccc5c4)n3n2)cc1F [compound 75] | > 7.00 | > 7.00
41 | Cc1cc(F)cc(-c2ccc3nnc(Cc4ccc5ncccc5c4)n3n2)c1 [compound 76] | > 7.00 | > 7.00
42 | Fc1ccc(-c2ccc3nnc(Cc4ccc5ncccc5c4)n3n2)cc1C(F)(F)F [compound 77] | > 7.00 | 6.00 to 7.00
43 | FC(F)(F)c1cccc(-c2ccc3nnc(Cc4ccc5ncccc5c4)n3n2)c1 [compound 78] | > 7.00 | > 7.00
44 | CC(c1ccc2ncsc2c1)c1nnc2ccc(-c3cnn(C)c3)nn12 (stereo not shown) [compound 79] | > 7.00 | > 7.00
45 | CNC(=O)c1ccc(-c2ccc3nnc(C(C)c4ccc5ncccc5c4)n3n2)cc1F (stereo not shown) [compound 80] | > 7.00 | > 7.00
46 | CC(c1ccc2ncsc2c1)c1nnc2ccc(-c3cccc(C#N)c3)nn12 (stereo not shown) [compound 81] | > 7.00 | > 7.00
47 | CNC(=O)c1ccc(-c2ccc3nnc(C(C)c4ccc5ncsc5c4)n3n2)cc1F (stereo not shown) [compound 82] | > 7.00 | > 7.00
48 | Cc1cc2ncccc2cc1Cc1nnc2ccc(-c3cnn(C)c3)nn12 [compound 84] | > 7.00 | > 7.00
49 | Cc1cc2ncccc2cc1Cc1nnc2ccc(-c3cccc(C#N)c3)nn12 [compound 85] | > 7.00 | > 7.00
50 | Cn1cc(-c2ccc3nnc(Cc4c(F)cc5ncccc5c4F)n3n2)cn1 [compound 87] | > 7.00 | > 7.00
